This is an account of results in US20100166859A1, “NOVEL NUTRACEUTICAL COMPOSITIONS AND USE THEREOF” (priority 2006, published 2010).

The term pIC50 denotes the negative decadic logarithm of the IC50, by convention in mol/L. A lower pIC50 goes with a large IC50.

The target of assay [1] is AMPA receptor. Kind of assay: [3H] AMPA radioligand binding assay. Particulars: displacement of 5 nM [3H] AMPA, rat cerebral cortex membranes, 25° C., 90 min; semi-quantitative, duplicates. As for the experimental part: Polypeptides or amino acid compositions of the instant invention were tested for the ability to bind to the AMPA receptor using a previously validated [3H] AMPA radioligand to binding assay (see, for example Olsen R W, Szamraj O, Houser C R Brain Res. 1987; 402(2):243-54.). Upon binding, the peptide is displacing the parent radioligand from the glutamate binding site of the AMPA receptor. Binding inhibition of 50% or more is generally considered as significant.
The membrane has been prepared as described in example 1.
Frozen pellets were thawed at room temperature and washed three times by resuspension in 50 mM Tris-acetate (pH 7.4) and centrifugation. Final pellets were suspended at concentrations of 2 to 3 mg/ml in 50 mM Tris-HCl (pH 7.4, 200 mM KSCN). Binding reactions were initiated by the addition of 200 μg of freshly prepared membranes to reaction mixtures (about 1 ml final volume) containing 5 nM [3H] AMPA at 25° C. in the presence of a range of peptide concentrations (0.5 μM, 1 μM, 10 μM, 100 μM and 200 μM). Incubation time was 90 min. Non-specific binding was determined using 1000 μM unlabelled L-Glutamic acid. […]
(§1) Assay results are presented as the % inhibition of specific binding. […] Semi-quantitative follow-up to estimate IC50 was done in duplicates at the indicated peptide concentrations.

Assay [2] concerns AMPA receptor. The assay can be described thus: Whole cell patch-clamp on CA1 pyramidal cells in brain slices, synaptic AMPA responses. It counts as cell-based, C57BL/6 mice. As for the experimental part: Whole cell patch-clamp experiments were performed in parasagital brain slices on CAI pyramidal cells. The animals used for this study were C57BL/6 mice. After decapitation of the mice brains were quickly removed and placed in aerated (95% O2, 5% CO2) artificial cerebrospinal fluid (ASCF) solution at 4° C. The ACSF solution was composed of (mM): 124 NaCl, 2.5 KCl, 1.3 MgCl2, 26 NaHCO3, 1.25 NaH2PO4, 2.5 CaCl2 […] Synaptic AMPA responses were evoked every 10 seconds with a bipolar platinum electrode and recorded in the voltage clamp configuration with 4-5 MΩ patch pipette at a holding potential of −60 mV. Baseline recordings were performed with 100 μM picrotoxin in the ACSF. After establishing a stable synaptic AMPA response the tripeptide EPP (140 μM) was added to the bath, continuing the recording for an additional 20 to 30 minutes. At the end of every experiment NBQX (20 μM) was bath applied to block the AMPA response. The residual trace was subtracted from the previous recordings to show only the AMPA current. […]
Parameters measured to estimate the action of EPP were the holding current, amplitude, and initial slope of the AMPA responses. Additionally the amplitude ratio and initial slope ratio of the two AMPA responses from the paired pulse experiments was determined.
A general note: The patch-clamp technique gives a direct electrical read-out from membranes.

Assay [3] has as its target glycine co-agonist site on the NMDA receptor (Rattus norvegicus, UniProt P35439). Kind of assay: [3H] MDL-105519 radioligand binding assay, glycine co-agonist site of the NMDA receptor. Particulars: displacement of 0.33 nM [3H] MDL-105519, rat cerebral cortex membranes. On the procedure: Polypeptides or amino acid compositions of the instant invention were tested for the ability to bind to the glycine co-agonist site on the NMDA receptor using a previously validated [3H] MDL-105519 radioligand binding assay (see, for example Siegel B W, Sreekrishna K, Baron B M. Eur J Pharmacol. 1996 Oct. 3; 312(3):357-65). Upon binding, the peptide is displacing the parent radioligand from the NR1a binding site of the NMDA receptor. Binding inhibition of 50% or more is generally considered as significant.
Crude synaptic membranes used in the assay were prepared using rat cerebral cortex tissue (male Wistar rats) and extensively washed using the procedures described previously (Haring et al., 1991, J. Neurochem. 57:323-331). Briefly, tissue which has been stored at −80° C. was homogenized in ice-cold 5 mM Tris (pH 7.4) using a Polytron and then pelleted by centrifugation at 48,000 g for 20 minutes. The resulting supernatant was discarded, and the membranes washed three times in cold buffer. […]
Frozen pellets were thawed at room temperature and washed three times by resuspension in 50 mM Tris-acetate (pH 7.4) and centrifugation. […] Non-specific binding was determined using 10 μM unlabelled MDL-105519. […]
as §1

pIC50: −log10 of the molar value. Where a SMILES comes first, the peptide text is derived from it. [ ]: non-standard residue; d: D form. ξ: configuration not given here. ξP = O=C(O)C1CCCN1

Take `NC(CCC(=O)O)C(=O)N1CCCC1C(=O)N1CCCC1C(=O)O` (stereo not drawn) [EPP] (H-Glu-Pro-Pro-OH; configuration not given here): the pIC50 at AMPA receptor [1] was 4.85. In the assay with AMPA receptor [2] (140 μM EPP in bath, baseline −83.9±14.1 pA, p<0.05, holding potential −60 mV), the “amplitude of the first synaptic AMPA response” value is recorded as −130.6±22.6 pA. In addition, the “change in slope of the AMPA response” value in the assay on AMPA receptor [2] (140 μM EPP versus baseline, p=0.06) is “just failed to reach significance”.
In assay [3] (reference compound), `O=C(O)/C(=C/c1c(C(=O)O)[nH]c2cc(Cl)cc(Cl)c12)c1ccccc1` [MDL-105519, reference compound] had a pIC50 of 8.02.
For `NCC(=O)NCC(=O)N1CCCC1C(=O)O` (stereo not drawn) [GGP] (H-Gly-Gly-[ξP]-OH), in assay [3] (4° C., 30 min, semi-quantitative, duplicates), the pIC50 was 4.95.
